From US11285226B2, “Aryl ethene derivative and pharmaceutical composition containing same as active ingredient” (priority 2016, dated 2022)
Like-named read-outs stand apart in the source and are kept apart here.

Assays:
[1] = type: in vitro ADME, human; conditions: 1 μM, 30 minutes, 37° C.
Experimental: 2) Microsomal Stability Evaluation
(§2) Four liver microsomes (Human, Dog, Rat, Mouse 0.5 mg/ml) with a 0.1 M phosphate buffer solution (pH 7.4), and the arylethene derivative of the present invention were added to a concentration of 1 μM, culturing was performed at 37° C. for 5 minutes in advance, a NADPH regeneration system solution was added thereto, and culturing was performed at 37° C. for 30 minutes. Thereafter, in order to complete the reaction, an acetonitrile solution containing an internal standard material (chlorpropamide) was added thereto, centrifugation (14,000 rpm, 4° C.) was performed for 5 minutes, and a supernatant was injected into a LC-MS/MS system to analyze the substrate drug, thereby evaluating metabolism stability to the arylethene derivative of the present invention.

ERRγ = type: cell-based; conditions: for Functional Assay, Cpds/Ref 5182: activity relative to reference compound GSK5182; for Functional Assay at 10 μM (% of control), Cpds: AD293, 24 hours
Experimental: AD293 was cultured in a 24-well plate for 24 hours, using a DMEM High glucose culture medium (Hyclone, USA) to which 0.5% FBS was added at a concentration of 9×10^4/well. The culture medium was replaced with a DMEM High glucose culture medium to which 10% FBS was added, treatment was performed with a mixture of a TransIT-LT1 transfection reagent (Minis, USA) and pCMX-Gal4-ERRγ, pFR-luciferase reporter plasmid, pCMV-β-gal, and culturing was performed for 24 hours. Thereafter, a luciferase activity assay and a β-gal assay were performed, respectively, with a lysate obtained after treatment with the arylethene derivative of the present invention for 24 hours. All results were derived from three or more independent repetitive experiments.

[2] = type: in vitro ADME, dog; conditions: 1 μM, 30 minutes, 37° C.
Experimental: 2) Microsomal Stability Evaluation
as §2

[3] = type: in vitro ADME; conditions: PBS pH 7.4, 25° C., 5 hours
Experimental: 3) Parallel Artificial Membrane Permeability Assay (PAMPA) Evaluation
PAMPA is a method which has been developed for testing cell membrane permeability of a material in a test tube, and has been performed using a lipid tri-layer PVDF membrane available from Corning Gentest (NY, US), the used reagents were all purchased from Sigma (MO, US). First, a test material is diluted in PBS (pH 7.4) to a final concentration of 10 mM, 300 mL of the solution is added to the bottom well of a 96-transwell equipped with a PVDF membrane, and 200 mL of PBS is added to the upper well. Then, a plate is reacted at 25° C. for 5 hours, 20 mL of the solution in each well is transferred to a new container, and 80 mL of acetonitrile containing an internal standard material (4 mM chloropropamide) is added thereto. A concentration of the material in the solution is analyzed using LC-MS/MS (ThermoFisher Scientific, MO, US), and the transmittance of the material is calculated according to the equation reported in the reference document. • Reference document: A novel design of artificial membrane for improving the PAMPA model.

CYP1A2 = CYP1A2 (Homo sapiens (Human), UniProt P05177); assay: Cytochrome P450 activity inhibition, CYP1A2; type: in vitro ADME; conditions: 10 μM, human liver microsomes
Sequence of CYP1A2 (P05177 whole entry): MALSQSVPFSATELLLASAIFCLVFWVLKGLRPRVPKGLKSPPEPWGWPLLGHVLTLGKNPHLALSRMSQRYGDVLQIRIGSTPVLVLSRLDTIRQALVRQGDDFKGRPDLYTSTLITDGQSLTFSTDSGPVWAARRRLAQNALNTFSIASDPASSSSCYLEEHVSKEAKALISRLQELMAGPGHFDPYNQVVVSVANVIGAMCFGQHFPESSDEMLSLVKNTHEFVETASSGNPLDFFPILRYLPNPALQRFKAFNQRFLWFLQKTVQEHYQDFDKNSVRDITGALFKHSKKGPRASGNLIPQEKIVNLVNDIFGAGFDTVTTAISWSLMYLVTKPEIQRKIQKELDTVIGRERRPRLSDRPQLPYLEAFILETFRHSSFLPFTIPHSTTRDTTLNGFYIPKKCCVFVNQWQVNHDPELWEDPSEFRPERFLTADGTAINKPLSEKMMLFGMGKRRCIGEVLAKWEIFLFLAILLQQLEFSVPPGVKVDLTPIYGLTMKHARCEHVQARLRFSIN
Text: (§1) 1) Cytochrome P450 (CYP450) Activity Inhibition Evaluation

CYP2C19 = CYP2C19 (Homo sapiens (Human), UniProt P33261); assay: Cytochrome P450 activity inhibition, CYP2C19; type: in vitro ADME; conditions: 10 μM, human liver microsomes
Sequence of CYP2C19 (P33261 whole entry): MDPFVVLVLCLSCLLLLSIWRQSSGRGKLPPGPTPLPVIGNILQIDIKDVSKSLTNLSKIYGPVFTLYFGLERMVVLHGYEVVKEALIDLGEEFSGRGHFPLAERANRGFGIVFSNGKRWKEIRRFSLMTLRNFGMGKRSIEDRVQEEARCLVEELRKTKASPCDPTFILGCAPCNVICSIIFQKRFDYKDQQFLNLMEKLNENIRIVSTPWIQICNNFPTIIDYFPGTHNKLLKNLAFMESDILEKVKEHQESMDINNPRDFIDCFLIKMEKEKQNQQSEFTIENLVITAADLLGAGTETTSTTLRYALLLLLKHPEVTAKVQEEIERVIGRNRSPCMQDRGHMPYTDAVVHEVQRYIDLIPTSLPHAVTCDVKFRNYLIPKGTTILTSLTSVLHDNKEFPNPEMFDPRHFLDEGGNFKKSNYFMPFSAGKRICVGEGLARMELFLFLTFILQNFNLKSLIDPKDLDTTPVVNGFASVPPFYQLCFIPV
Text: as §1

CYP2C9 = CYP2C9 (Homo sapiens (Human), UniProt P11712); assay: Cytochrome P450 activity inhibition, CYP2C9; type: in vitro ADME; conditions: 10 μM, human liver microsomes
Sequence of CYP2C9 (P11712 whole entry): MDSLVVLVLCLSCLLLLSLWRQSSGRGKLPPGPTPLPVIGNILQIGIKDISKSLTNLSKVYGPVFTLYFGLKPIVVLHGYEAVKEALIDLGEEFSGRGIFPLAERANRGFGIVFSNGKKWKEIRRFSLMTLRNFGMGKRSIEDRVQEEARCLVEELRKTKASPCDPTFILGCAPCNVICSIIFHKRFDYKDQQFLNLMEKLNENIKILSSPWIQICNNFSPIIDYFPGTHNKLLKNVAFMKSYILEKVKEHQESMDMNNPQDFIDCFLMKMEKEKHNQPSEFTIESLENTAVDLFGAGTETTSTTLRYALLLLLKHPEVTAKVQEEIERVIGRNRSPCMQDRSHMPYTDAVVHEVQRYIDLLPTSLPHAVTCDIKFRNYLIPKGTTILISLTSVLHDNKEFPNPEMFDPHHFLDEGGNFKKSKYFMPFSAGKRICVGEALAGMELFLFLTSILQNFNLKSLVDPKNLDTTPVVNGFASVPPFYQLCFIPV
Text: as §1

[4] = type: in vitro ADME, rat; conditions: 1 μM, 30 minutes, 37° C.
Experimental: 2) Microsomal Stability Evaluation
as §2

ATC mouse tumor model = conditions: cited from earlier work
[5] = type: in vivo; conditions: rat; for BA: PO 10 mg/kg vs IV 1 mg/kg
Experimental: An oral administration group fasts the day before.
Blood of each animal is collected at 0 hour.
Into a tail vein of an intravenous administration group (IV), a drug is injected at a dose of 1 mg/kg (syringe).
To an oral administration group (PO), a drug is orally administered at a dose of 10 mg/kg (oral zondec)
After administration, blood of the intravenous administration group was collected through a jugular vein 8 times at 0.08, 0.25, 0.5, 1, 2, 4, 6, and 8 hours. One collected blood amount is 400 to 500 ul.
After administration, blood of the oral administration group was collected through a jugular vein 6 times at 0.25, 0.5, 1, 4, 6 and 8 hours. One collected blood amount is 400 to 500 ul.
Supernatant plasma is collected by a centrifuge.
The supernatant plasma was injected into a LC-MS/MS system and the drug is analyzed.

CYP3A4 = CYP3A4 (Homo sapiens (Human), UniProt P08684); assay: Cytochrome P450 activity inhibition, CYP3A4; type: in vitro ADME; conditions: 10 μM, human liver microsomes
Sequence of CYP3A4 (P08684 whole entry): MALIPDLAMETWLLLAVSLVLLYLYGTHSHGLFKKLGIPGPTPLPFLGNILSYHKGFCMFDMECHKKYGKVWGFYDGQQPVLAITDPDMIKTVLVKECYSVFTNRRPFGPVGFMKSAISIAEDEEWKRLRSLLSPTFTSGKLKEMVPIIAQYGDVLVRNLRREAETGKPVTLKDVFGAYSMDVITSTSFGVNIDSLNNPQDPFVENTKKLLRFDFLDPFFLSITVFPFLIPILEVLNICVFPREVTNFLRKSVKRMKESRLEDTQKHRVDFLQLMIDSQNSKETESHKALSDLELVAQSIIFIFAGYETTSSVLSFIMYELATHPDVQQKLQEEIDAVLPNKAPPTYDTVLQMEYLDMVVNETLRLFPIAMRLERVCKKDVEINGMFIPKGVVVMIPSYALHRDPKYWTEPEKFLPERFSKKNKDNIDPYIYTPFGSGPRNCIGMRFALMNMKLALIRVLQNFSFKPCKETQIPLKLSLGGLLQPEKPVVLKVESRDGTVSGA
Experimental: Thereafter, in order to complete the reaction, an acetonitrile solution containing an internal standard material (Terfenadine) was added thereto, centrifugation (14,000 rpm, 4° C.) was performed for 5 minutes, and a supernatant was injected into a LC-MS/MS system to analyze the metabolites of the substrate drug, thereby evaluating drug metabolism enzyme inhibition by the arylethene derivative of the present invention.

CYP2D6 = CYP2D6 (Homo sapiens (Human), UniProt P10635); assay: Cytochrome P450 activity inhibition, CYP2D6; type: in vitro ADME; conditions: 10 μM, human liver microsomes
Sequence of CYP2D6 (P10635 whole entry): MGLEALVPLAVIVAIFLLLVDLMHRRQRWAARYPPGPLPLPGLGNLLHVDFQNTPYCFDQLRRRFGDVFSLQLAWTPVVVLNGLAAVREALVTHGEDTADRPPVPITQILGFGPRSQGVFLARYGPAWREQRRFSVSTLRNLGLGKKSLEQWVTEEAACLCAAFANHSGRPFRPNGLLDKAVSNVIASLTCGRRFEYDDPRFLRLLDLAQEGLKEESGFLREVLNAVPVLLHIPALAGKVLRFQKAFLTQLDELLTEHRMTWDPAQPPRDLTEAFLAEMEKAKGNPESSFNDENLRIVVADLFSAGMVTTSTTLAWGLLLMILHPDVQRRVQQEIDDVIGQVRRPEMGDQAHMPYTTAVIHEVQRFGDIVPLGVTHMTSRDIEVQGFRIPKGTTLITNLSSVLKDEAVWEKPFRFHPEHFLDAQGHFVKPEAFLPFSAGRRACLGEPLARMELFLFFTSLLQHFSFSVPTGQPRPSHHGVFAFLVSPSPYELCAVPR
Text: as §1

pERK1/2 in CAL62 cells = assay: Western blot, phosphorylated ERK1/2 (MAP kinase); type: cell-based; conditions: selective MEK inhibitor
CAL-62 cells = assay: 125I uptake assay in anaplastic thyroid cancer cells; type: cell-based
[6] = biological target: ER alpha ligand-binding domain (LBD) (Homo sapiens (Human), UniProt P03372); conditions: beta-estradiol 4 nM as agonist; read-out: Binding Assay, IC50 ERα
Sequence of ER alpha ligand-binding domain (LBD) (P03372 whole entry, looked up, the tested form may be a part): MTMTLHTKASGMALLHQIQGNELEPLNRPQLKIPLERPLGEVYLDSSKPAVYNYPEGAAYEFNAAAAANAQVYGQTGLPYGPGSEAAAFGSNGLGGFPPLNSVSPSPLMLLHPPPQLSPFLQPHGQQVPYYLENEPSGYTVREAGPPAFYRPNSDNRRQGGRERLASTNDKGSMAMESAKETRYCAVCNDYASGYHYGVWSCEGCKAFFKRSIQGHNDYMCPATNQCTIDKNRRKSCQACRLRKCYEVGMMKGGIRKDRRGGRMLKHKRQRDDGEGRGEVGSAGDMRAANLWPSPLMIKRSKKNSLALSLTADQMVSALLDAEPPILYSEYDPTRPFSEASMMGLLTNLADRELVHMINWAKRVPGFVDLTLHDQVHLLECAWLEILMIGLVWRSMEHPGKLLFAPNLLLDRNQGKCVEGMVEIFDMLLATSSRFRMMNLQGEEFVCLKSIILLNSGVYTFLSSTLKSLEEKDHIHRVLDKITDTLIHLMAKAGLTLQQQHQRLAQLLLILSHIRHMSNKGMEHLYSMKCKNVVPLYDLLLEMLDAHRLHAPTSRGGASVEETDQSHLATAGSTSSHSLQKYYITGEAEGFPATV
Experimental: (§3) The arylethene derivative of the present invention was sequentially added to a 384 well plate from a concentration of 10 μM to a final concentration of two-fold dilution. […] After all reagents were added, a reaction was carried out with gentle shaking at 20° C. for 1 hour, and after the reaction, a binding activity was measured by a TR-FRET method.

ERR alpha LBD = ERR alpha LBD (Homo sapiens (Human), UniProt P11474); conditions: read-out: Binding Assay, IC50 ERRα
Sequence of ERR alpha LBD (P11474 193-421, species assumed): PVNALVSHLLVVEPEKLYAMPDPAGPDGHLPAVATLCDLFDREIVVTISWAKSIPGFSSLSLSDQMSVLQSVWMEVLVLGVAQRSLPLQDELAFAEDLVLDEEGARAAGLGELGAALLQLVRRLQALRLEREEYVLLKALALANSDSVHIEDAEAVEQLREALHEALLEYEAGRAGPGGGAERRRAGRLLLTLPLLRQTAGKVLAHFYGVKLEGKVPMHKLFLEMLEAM
Experimental: as §3

[7] = type: in vitro ADME, mouse; conditions: 1 μM, 30 minutes, 37° C.
Experimental: 2) Microsomal Stability Evaluation
as §2

Row | Compound | MS (Microsomal Stability) (%) human [1] | Functional Assay, Cpds/Ref 5182 (ERRγ) | CYP inhibition (% of control) 1A2 (CYP1A2) | CYP inhibition (% of control) 2C19 (CYP2C19) | CYP inhibition (% of control) 2C9 (CYP2C9) | MS (Microsomal Stability) (%) rat [4] | also measured
1 | Cl.Cl.OCCC/C(=C(\c1ccc(O)cc1)c1ccc(OCCN2CCNCC2)cc1)c1ccccc1 [Compound 7a, (Z)-4-(5-hydroxy-2-phenyl-1-(4-(2-(piperazin-1-yl)ethoxy)phenyl)pent-1-en-1-yl)phenol 2hydrochloride Salt] | 49.0% | 0.86 |  |  |  |  | 
2 | Cc1ccc(/C(=C(\CCCO)c2ccccc2)c2ccc(N3CCNCC3)cc2)cc1 [Compound 20b] | 44% | 0.88 |  |  |  |  | MS (Microsomal Stability) (%) dog [2]: 58%
3 | Nc1ccc(/C(=C(\CCCO)c2ccccc2)c2ccc(C3CCN(C4CC4)CC3)cc2)cc1 [Compound 26d] |  |  | >100 % of control | >100 % of control |  |  | Permeability Pampa [3]: 1.04 10^−6 cm/s
4 | OCCC/C(=C(/c1ccc(C2CCN(C3CC3)CC2)cc1)c1cccc(O)c1)c1ccccc1 [Compound 22r] | 62.0% |  | >100 % of control | >100 % of control | >100 % of control |  | 
5 | Cc1ccc(/C(=C(\CCCO)c2ccccc2)c2ccc(C3CCN(C)CC3)cc2)cc1 [Compound 22f] | 97.0% |  |  |  |  | 80.0% | 
6 | CN(C)CCOc1ccc(/C(=C(/CCCO)c2ccccc2)c2ccc(O)cc2)cc1 [GSK5182, reference compound] |  |  | 84.6 % of control | 78.2 % of control | 72.9 % of control |  | radioiodine uptake in the tumor (ATC mouse tumor model): not increased; BA [5]: 8.4%; CYP inhibition (% of control) 3A4 (CYP3A4): 83 % of control; CYP inhibition (% of control) 2D6 (CYP2D6): 82.3 % of control
7 | Cc1ccc(/C(=C(\CCCO)c2ccccc2)c2ccc(C3CCNCC3)cc2)cc1 [Compound 20k] |  |  |  |  |  | 89.0% | 
8 | CC(C)N1CCC(c2ccc(/C(=C(/CCCO)c3ccccc3)c3cccc(O)c3)cc2)CC1 [Compound 22m] |  |  | 97 % of control | >100 % of control |  |  | MS (Microsomal Stability) (%) dog [2]: 55.0%
9 | COc1cccc(-c2cc(=O)c3ccccc3o2)c1N [PD98059, reference compound] |  |  |  |  |  |  | inhibition of the relative increase of phosphorylated ERK1 and ERK2 by compound 18a (pERK1/2 in CAL62 cells): completely inhibited; inhibition of the radioactive iodine uptake increase by compound 18a (CAL-62 cells; selective MEK inhibitor, pre-incubated 30 minutes): completely inhibited
10 | [K+].[O-][Cl+3]([O-])([O-])[O-] [KClO4, reference compound] |  |  |  |  |  |  | block of radioactive iodine uptake increased in compound 18a-treated cells (CAL-62 cells; co-incubated with compound 18a-treated CAL62 cells): completely blocks
11 | OCCC/C(=C(\c1ccc(O)cc1)c1ccc(OCCN2C[C@H]3CNC[C@H]3C2)cc1)c1ccccc1 [Compound 40, 4-((Z)-1-(4-(2-((3aR,6aS)-hexahydropyrrolo[3,4-c]pyrrol-2(1H)-yl)ethoxy)phenyl)-5-hydroxy-2-phenylpent-1-en-1-yl)phenol] |  | 0.96 |  |  |  | 72.0% | 
12 | Cc1ccc(/C(=C(\CCCO)c2ccccc2)c2ccc(N3CCN(C(C)C)CC3)cc2)cc1 [Compound 18b] |  | 0.78 |  |  |  | 40.0% | BA [5]: 8.7%; CYP inhibition (% of control) 3A4 (CYP3A4): 53 % of control
13 | CC(C)N1CCC(c2ccc(/C(=C(/CCCO)c3ccccc3)c3cccc(O)c3)cc2)C1 (racemic) [Compound 22u] | 40.0% |  |  |  |  |  | MS (Microsomal Stability) (%) dog [2]: 10.0%
14 | CN1CCN(c2ccc(/C(=C(/CCCO)c3ccccc3)c3ccc(Br)cc3)cc2)CC1 [Compound 18e] |  | 0.89 | >100 % of control | 84.6 % of control | 91.3 % of control |  | Permeability Pampa [3]: 1.11 10^−6 cm/s; IC50 [6]: > 10 µM; AUCINF ([5]; IV 1 mg/kg): 0.06 μMh; AUCall ([5]; IV 1 mg/kg): 0.06 μMh; Vss ([5]; IV 1 mg/kg): 39.1 L/kg; t1/2 ([5]; IV 1 mg/kg): 0.8 h; AUCINF ([5]; PO 10 mg/kg): 0.09 μMh; AUCall ([5]; PO 10 mg/kg): 0.07 μMh; Cmax ([5]; PO 10 mg/kg): 10 nM; Tmax ([5]; PO 10 mg/kg): 2.8 h; BA [5]: 11.5%; CYP inhibition (% of control) 3A4 (CYP3A4): 84 % of control; CYP inhibition (% of control) 2D6 (CYP2D6): >100 % of control; Functional Assay at 10 μM (% of control), Cpds (ERRγ): 2.6 % of control; IC50 (ERR alpha LBD): > 10 µM
15 | CN1CCC[C@H]1COc1ccc(/C(=C(/CCCO)c2ccccc2)c2ccc(O)cc2)cc1 [Compound 6h] |  |  | 103 % of control | 83.2 % of control | 62.8 % of control |  | CYP inhibition (% of control) 3A4 (CYP3A4): 75.4 % of control; CYP inhibition (% of control) 2D6 (CYP2D6): 90.7 % of control; IC50 (ERR alpha LBD): > 10 µM
16 | CC(C)N1CCC(c2ccc(/C(=C(/CCCO)c3ccccc3)c3ccc(O)cc3)cc2)CC1 [Compound 22k] |  | 0.83 | >100 % of control | >100 % of control | 97 % of control | 69.0% | Functional Assay at 10 μM (% of control), Cpds (ERRγ): 0.77 % of control
17 | OCCC/C(=C(\c1ccc(O)cc1)c1ccc(OCCN2C[C@H]3C[C@H]3[C@H]2CO)cc1)c1ccccc1 [Compound 38d] | 6.9% | 0.77 | 79.2 % of control | 58.8 % of control | 55.3 % of control | 11.7% | CYP inhibition (% of control) 3A4 (CYP3A4): 57.6 % of control; CYP inhibition (% of control) 2D6 (CYP2D6): 54.3 % of control; IC50 (ERR alpha LBD): > 10 µM; MS (Microsomal Stability) (%) mouse [7]: 11.8%
18 | N#CC(=C(/N)Sc1ccccc1N)/C(C#N)=C(\N)Sc1ccccc1N [Compound U0126, U0126] |  |  |  |  |  |  | inhibition of the relative increase of phosphorylated ERK1 and ERK2 by compound 18a (pERK1/2 in CAL62 cells): completely inhibited
19 | C[Si](C)(CN1CCCCC1)c1ccc(/C(=C(/CCCO)c2ccccc2)c2ccc(O)cc2)cc1 [Compound 42b] |  |  |  |  |  |  | Permeability Pampa [3]: 0.1 10^−6 cm/s
20 | Cc1ccc(/C(=C(\CCCO)c2ccccc2)c2ccc(C3CNC3)cc2)cc1 [Compound 20d] | 83% | 0.81 |  |  |  | 54% | 
21 | CCN1CCN(c2ccc(/C(=C(/CCCO)c3ccccc3)c3ccc(C)cc3)cc2)CC1 [Compound 18j] |  |  | >100 % of control | 74 % of control | 87 % of control |  | MS (Microsomal Stability) (%) dog [2]: 58.0%
22 | CC(C)N1CCN(c2ccc(/C(=C(/CCCO)c3ccccc3)c3ccc(NS(C)(=O)=O)cc3)cc2)CC1 [Compound 27a, (E)-N-(4-(5-hydroxy-1-(4-(4-isopropylpiperazin-1-yl)phenyl)-2-phenylpent-1-en-1-yl)phenyl)methanesulfonamide] |  |  |  |  |  | 65.0% | 
23 | OCCC/C(=C(\c1ccc(O)cc1)c1ccc(N2CCN(C3CCCC3)CC2)cc1)c1ccccc1 [Compound 22n] |  |  | 99 % of control | 83 % of control |  |  | MS (Microsomal Stability) (%) dog [2]: 72.0%
